# Source: article PMC9967758, “Preclinical Efficacy of a PARP-1 Targeted Auger-Emitting Radionuclide in Prostate Cancer” (International Journal of Molecular Sciences, 2023)
# Biological target: T1, Poly (ADP-ribose) polymerase-1 (PARP-1) (Homo sapiens, UniProt P09874)
# T1 construct: gene PARP1
# Test: radioligand saturation binding in PC-3 tumor xenografts
# T1 sequence (P09874 2-1014): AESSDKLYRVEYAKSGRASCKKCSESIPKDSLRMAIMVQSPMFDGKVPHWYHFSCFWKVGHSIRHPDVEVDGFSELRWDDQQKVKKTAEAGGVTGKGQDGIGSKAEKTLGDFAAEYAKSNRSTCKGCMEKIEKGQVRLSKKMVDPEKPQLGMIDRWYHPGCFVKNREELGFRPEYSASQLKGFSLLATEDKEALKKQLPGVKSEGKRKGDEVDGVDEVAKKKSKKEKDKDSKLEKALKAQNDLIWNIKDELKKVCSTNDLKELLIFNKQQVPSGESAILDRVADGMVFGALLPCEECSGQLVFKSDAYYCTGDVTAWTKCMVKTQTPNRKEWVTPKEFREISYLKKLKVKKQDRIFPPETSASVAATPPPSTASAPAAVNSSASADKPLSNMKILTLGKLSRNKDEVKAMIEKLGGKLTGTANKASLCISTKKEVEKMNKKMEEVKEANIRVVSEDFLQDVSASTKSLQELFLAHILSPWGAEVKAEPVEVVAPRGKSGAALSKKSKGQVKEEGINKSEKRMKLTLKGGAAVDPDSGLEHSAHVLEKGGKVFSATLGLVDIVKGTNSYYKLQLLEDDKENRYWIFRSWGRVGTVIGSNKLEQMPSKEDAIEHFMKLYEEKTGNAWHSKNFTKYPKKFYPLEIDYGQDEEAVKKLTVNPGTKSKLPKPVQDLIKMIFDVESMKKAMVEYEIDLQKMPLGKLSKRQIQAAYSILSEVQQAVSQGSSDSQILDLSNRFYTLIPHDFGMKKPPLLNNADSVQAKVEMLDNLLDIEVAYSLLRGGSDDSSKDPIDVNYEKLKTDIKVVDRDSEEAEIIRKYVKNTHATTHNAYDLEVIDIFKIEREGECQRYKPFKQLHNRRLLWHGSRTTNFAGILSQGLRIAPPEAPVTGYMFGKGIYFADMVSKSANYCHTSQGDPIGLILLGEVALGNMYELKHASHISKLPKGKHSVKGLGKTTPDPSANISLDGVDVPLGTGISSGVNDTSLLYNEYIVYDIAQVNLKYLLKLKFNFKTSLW
substance,measurement,value
[^77Br]Br-WC-DZ,Kd,0.58 ± 0.25 nM
